These results are taken from patent publication US20020039567A1, “Methods of treating bone or cartilage conditions by the administration of creatine” (priority 1998, published 2002).

The test system of series [1] is osteoblasts (monolayer culture). Kind of series: Mineralization (von Kossa, image analysis), monolayer osteoblast cell culture. Format: cell-based, rat. The settings on record: for mineralization (FIG. 3): no significant difference between groups. As for the experimental part: This isolation technique is based on the ability of osteoblasts to migrate from bone onto a substratum. Parietal and frontal calvariae (4 per animal) were aseptically explanted from 6 day-old IcoIbm rats. The calvariae were placed in Tyrode's balanced salt solution, calcium and magnesium free (TESS). The periosteum was enzymatically removed with 0.05% trypsin and 0.02% collagenase A (0.76 U/mg) dissolved in TBSS (40 calvaria/20 ml). The calvariae were shaken for 70 minutes in a waterbath at 37° C. They were washed with TESS and then transferred to 60 mm culture dishes (40 calvariae/dish) containing 5 ml of 0.02% collagenase A (0.76 U/mg) in culture medium BGJb Fitton-Jackson modification and placed in the incubator for 4 hours. The calvariae were then washed with culture medium B supplemented with 10% foetal calf serum (FCS). The calvariae were transferred into 60 mm culture dishes (4 frontal and 4 parietal/dish). The growth medium supplemented with 10% FCS and 50 μg/ml ascorbate was completely changed every 48 hours. The culture was kept for 3 weeks. After 3 weeks the migrated cells were harvested. The dish was washed with TESS, and 5 ml of TESS containing 0.05% trypsin and 0.02% collagenase A (0.76 U/mg) was added. After 1 hour in the incubator, the dish was washed with culture medium BGJb supplemented with 10% FCS. The dishes containing the calvariae and cells were rinsed with serum containing media BGJb. The cells obtained were filtered through a 40 μm nylon mesh to remove bone debris and cell aggregates. The suspended cells were centrifuged at 600 g for 5 minutes. The cell pellet was resuspended in serum containing medium BGJb and centrifuged. The viability of the resuspended cells was examined by the dye exclusion of 0.4% trypan blue, and the cells were counted in a haeinocytometer. The inoculation densities were 2·10^5/10 cm^2 for monolayer and 2·10^5/30 μl for micromasses. The micromass cultures were kept for 1 hour in the incubator before 2 ml growth medium was added. All the cultures were kept at 37° C. in a humidified atmosphere of 5% CO2, 95% air. All culture media were supplemented with 50 μg/ml ascorbate. To analyze the collagen types, 60 μg/ml beta-aminopropionitrile (beta-APN) was added to the culture medium. During cell isolation and inoculation, no ascorbate was used to increase plating efficiency. No antibiotics and no beta-glycerophosphate were added. The media were completely changed every 48 hours (60 mm culture dish 5 ml; 35 mm culture dish 2 ml). The most specific method for detecting calcified matrices is the von Kossa reaction. Silver staining indicates the presence of calcium phosphate aggregated with certain organic acids. Structural details are completely obscured by the dark precipitate. Calcified tissue components are darkened in various shades from light brown to deep black, irrespective of their mineral content. [table] In the further experiments to quantify the calcification by image analysis of a center area (123 mm^2) of the culture dish, only the creatine groups were compared to the control groups, with the GPA-treated cells not further evaluated.

Series [2] has the same test system. Put plainly: Metabolic activity (MTT), monolayer osteoblast cell culture. The format is cell-based, rat. The conditions noted are these: for metabolic activity measured by the MTT reaction / MTT reaction: preliminary. How it is done:
This isolation technique is based on the ability of osteoblasts to migrate from bone onto a substratum. Parietal and frontal calvariae (4 per animal) were aseptically explanted from 6 day-old IcoIbm rats. The calvariae were placed in Tyrode's balanced salt solution, calcium and magnesium free (TESS). The periosteum was enzymatically removed with 0.05% trypsin and 0.02% collagenase A (0.76 U/mg) dissolved in TBSS (40 calvaria/20 ml). The calvariae were shaken for 70 minutes in a waterbath at 37° C. They were washed with TESS and then transferred to 60 mm culture dishes (40 calvariae/dish) containing 5 ml of 0.02% collagenase A (0.76 U/mg) in culture medium BGJb Fitton-Jackson modification and placed in the incubator for 4 hours. The calvariae were then washed with culture medium B supplemented with 10% foetal calf serum (FCS). The calvariae were transferred into 60 mm culture dishes (4 frontal and 4 parietal/dish). The growth medium supplemented with 10% FCS and 50 μg/ml ascorbate was completely changed every 48 hours. The culture was kept for 3 weeks.
After 3 weeks the migrated cells were harvested. The dish was washed with TESS, and 5 ml of TESS containing 0.05% trypsin and 0.02% collagenase A (0.76 U/mg) was added. After 1 hour in the incubator, the dish was washed with culture medium BGJb supplemented with 10% FCS. The dishes containing the calvariae and cells were rinsed with serum containing media BGJb. The cells obtained were filtered through a 40 μm nylon mesh to remove bone debris and cell aggregates. The suspended cells were centrifuged at 600 g for 5 minutes. The cell pellet was resuspended in serum containing medium BGJb and centrifuged. The viability of the resuspended cells was examined by the dye exclusion of 0.4% trypan blue, and the cells were counted in a haeinocytometer. The inoculation densities were 2·10^5/10 cm^2 for monolayer and 2·10^5/30 μl for micromasses. The micromass cultures were kept for 1 hour in the incubator before 2 ml growth medium was added.
All the cultures were kept at 37° C. in a humidified atmosphere of 5% CO2, 95% air. All culture media were supplemented with 50 μg/ml ascorbate. To analyze the collagen types, 60 μg/ml beta-aminopropionitrile (beta-APN) was added to the culture medium. During cell isolation and inoculation, no ascorbate was used to increase plating efficiency. No antibiotics and no beta-glycerophosphate were added. The media were completely changed every 48 hours (60 mm culture dish 5 ml; 35 mm culture dish 2 ml).
The Böhringer Cell Proliferation Kit I (MTT) was used for the assay, but we used a different solvent to dissolve the MTT crystals.
Originally, Mosmann, 1983 described the general principle involved in the detection of cell growth/cell death as indicated by the conversion of the tetrazolium salt (MTT) to the colored formazan by mitochondrial dehydrogenases. The concentration of this can then be measured spectrophotoinetrically.
1. MTT Stock (5 mg/ml in sterile PBS) from Böhringer was diluted […] with complete growth medium and sterile filtering.
2. The cells were incubated in 2 ml/10 cm^2 MTT solution at 37° C. for 3 hours.
3. The supernatant was carefully removed.
4. 4 ml/10 cm^2 dimethylsulphoxide (DMSO) was added.
5. The dishes were placed on a shaker until the crystals were completely dissolved.
6. The absorbance of the supernatant (3 aliquots/dish) was read at 550 nm versus DMSO.
If the absorbance was higher than 1, the samples were diluted with DMSO.
The mean value and the standard deviation consisted of n independent experiments. The values for the individual experiments were gained from the mean of 3 aliquots of the same dish. To compare the treatment, contrasts analysis of variance models were evaluated.

With `CN(CC(=O)O)C(=N)N` [creatine], the “mineralization (FIG. 3)” value in series [1] (10 mM creatine vs control, 3 weeks) is recorded as “more mineralization than the control”; in series [1] (20 mM creatine, 3 weeks, compared with 10 mM), “less effective”. For the same compound, the “calcified area (FIG. 3)” value in series [1] (20 mM creatine vs control, 2 weeks, p<0.02, center area 123 mm^2) is “significantly higher”. In series [1] (creatine groups vs control, after 2 and 3 weeks), the “mineralization, mean values” is “Mean values were higher”. The “metabolic activity (MTT) (FIG. 2)” value in series [2] (10 mM and 20 mM creatine vs control, 1 week) was “all groups were similar”; in series [2] (10 mM creatine vs control, 2 weeks, p<0.015), “control group was significantly lower than the 10 mM creatine”; in series [2] (10 mM creatine vs control, 3 weeks, p<0.001), “significantly higher than the control group”; in series [2] (20 mM creatine vs control, 2 weeks, p<0.0025) it was “control group was significantly lower than the 10 mM creatine and the 20 mM creatine”; in series [2] (20 mM creatine vs control, 3 weeks, p<0.001) it was “significantly higher than the control group”. Moreover, in series [2] (2 weeks, creatine groups vs control), the “metabolic activity measured by the MTT reaction” value is reported as “slightly stimulated”. Moreover, in series [2] (3 weeks, creatine vs control), the MTT reaction result is “stimulated the MTT reaction”.
Consider `N=C(N)NCCC(=O)O` [GPA, beta-guanidinopropionic acid], for which the calcification pattern result in series [1] (3 weeks, GPA groups, mineralization not limited to the nodules) was “different from the control and the creatine groups”. For the same compound, the “effects on the metabolism and the viability of the cells” value in series [2] (GPA-treated osteoblasts, summary) was “adverse effects on both the metabolism and the viability of the cells”. The “metabolic activity measured by the MTT reaction” value in series [2] (2 weeks, 10 mM GPA vs control) was “lower values than the control”. Besides, the MTT reaction result is on record as “lower values than the control” in series [2] (3 weeks, 1 mM or 5 mM GPA vs control) and “comparable to the control” in series [2] (3 weeks, 10 mM GPA vs control).
